Patent US20220112187A1, “PYRAZOLOPYRIDINE AMINE COMPOUNDS FOR THE TREATMENT OF AUTOIMMUNE DISEASE” (Hoffmann-La Roche Inc., priority 2018, published 2022)

The compounds below were run against T1, human TLR8 (Homo sapiens, UniProt Q9NR97) (assay: HEK293-Blue-hTLR-8 cells assay (SEAP reporter, R848 stimulation)). Details: HEK293-Blue-hTLR8 cells, R848 ligand, 20 hrs incubation.
T1 sequence (Q9NR97 27-1041): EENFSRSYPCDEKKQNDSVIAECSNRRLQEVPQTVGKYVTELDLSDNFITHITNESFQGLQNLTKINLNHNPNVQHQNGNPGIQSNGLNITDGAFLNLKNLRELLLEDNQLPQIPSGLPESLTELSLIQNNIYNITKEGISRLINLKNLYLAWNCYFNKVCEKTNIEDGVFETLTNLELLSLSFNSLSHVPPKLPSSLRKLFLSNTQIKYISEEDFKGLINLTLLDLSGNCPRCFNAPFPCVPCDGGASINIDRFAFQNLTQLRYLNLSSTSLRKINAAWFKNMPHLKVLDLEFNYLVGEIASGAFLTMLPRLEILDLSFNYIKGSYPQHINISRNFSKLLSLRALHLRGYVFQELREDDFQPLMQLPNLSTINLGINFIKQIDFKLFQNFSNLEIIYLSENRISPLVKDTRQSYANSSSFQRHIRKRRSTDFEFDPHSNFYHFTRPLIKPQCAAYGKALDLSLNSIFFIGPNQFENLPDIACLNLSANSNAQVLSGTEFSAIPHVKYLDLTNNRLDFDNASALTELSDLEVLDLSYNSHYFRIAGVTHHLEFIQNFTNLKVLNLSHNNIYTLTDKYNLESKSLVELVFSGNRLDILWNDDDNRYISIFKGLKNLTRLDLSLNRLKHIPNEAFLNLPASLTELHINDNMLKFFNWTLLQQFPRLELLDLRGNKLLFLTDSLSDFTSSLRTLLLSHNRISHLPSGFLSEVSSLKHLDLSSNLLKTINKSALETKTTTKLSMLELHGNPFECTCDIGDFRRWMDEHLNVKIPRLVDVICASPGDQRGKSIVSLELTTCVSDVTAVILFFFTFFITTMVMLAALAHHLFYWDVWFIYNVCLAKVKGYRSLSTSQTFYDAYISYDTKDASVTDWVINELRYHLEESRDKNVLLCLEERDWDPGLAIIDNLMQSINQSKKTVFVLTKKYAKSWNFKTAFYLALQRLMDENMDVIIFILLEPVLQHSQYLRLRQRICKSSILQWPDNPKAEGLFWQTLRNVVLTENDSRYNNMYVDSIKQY
Assay type: cell-based
From the text: A stable HEK293-Blue-hTLR-8 cell line was purchased from InvivoGen (Cat. #: hkb-htlr8, San Diego, Calif., USA). These cells were originally designed for studying the stimulation of human TLR8 by monitoring the activation of NF-κB. A SEAP (secreted embryonic alkaline phosphatase) reporter gene was placed under the control of the IFN-β minimal promoter fused to five NF-κB and AP-1-binding sites. The SEAP was induced by activating NF-κB and AP-1 via stimulating HEK-Blue hTLR8 cells with TLR8 ligands. Therefore the reporter expression was declined by TLR8 antagonist under the stimulation of a ligand, such as R848, for incubation of 20 hrs. The cell culture supernatant SEAP reporter activity was determined using QUANTI-Blue™ kit (Cat. #: rep-qb1, Invivogen, San Diego, Ca, USA) at a wavelength of 640 nm, a detection medium that turns purple or blue in the presence of alkaline phosphatase.
HEK293-Blue-hTLR8 cells were incubated at a density of 250,000˜450,000 cells/mL in a volume of 170 μL in a 96-well plate in Dulbecco's Modified Eagle's medium (DMEM) containing 4.5 g/L glucose, 50 U/mL penicillin, […], […], 2 mM L-glutamine, 10% (v/v) heat-inactivated fetal bovine serum with addition of 20 μL test compound in a serial dilution in the presence of final DMSO at 1% and 10 μL of 60 uM R848 in above DMEM, perform incubation under 37° C. in a CO2 incubator for 20 hrs. Then 20 μL of the supernatant from each well was incubated with 180 μL Quanti-blue substrate solution at 37° C. for 2 hrs and the absorbance was read at 620˜655 nm using a spectrophotometer. The signalling pathway that TLR8 activation leads to downstream NF-κB activation has been widely accepted, and therefore similar reporter assay was modified for evaluating TLR8 antagonist.

First: C[C@@H]1CN(c2ccc(C#N)n3nccc23)C[C@H](CN2CC3CCCNC3C2)O1 (stereo partly drawn) [Example 45, 4-[(2S,6R)-2-(1,2,3,4,4a,5,7,7a-octahydropyrrolo[3,4-b]pyridin-6-ylmethyl)-6-methyl-morpholin-4-yl]pyrazolo[1,5-a]pyridine-7-carbonitrile]
Second: C[C@@H]1CN(c2ccc(C#N)n3nccc23)C[C@H](CN2CC3CNCC3C2)O1 (stereo partly drawn) [Example 22, 4-[(2S,6R)-2-(2,3,3a,4,6,6a-hexahydro-1H-pyrrolo[3,4-c]pyrrol-5-ylmethyl)-6-methyl-morpholin-4-yl]pyrazolo[1,5-a]pyridine-7-carbonitrile]
The IC50 of the first is 3.3-fold higher: 0.23 µM for the first, 0.069 µM for the second.

Going from `C[C@@H]1CN(c2ccc(C#N)n3nccc23)C[C@H](CN2CC3(CC(N)C3)C2)O1` [Example 11, 4-[(2S,6R)-2-[(6-amino-2-azaspiro[3.3]heptan-2-yl)methyl]-6-methyl-morpholin-4-yl]pyrazolo[1,5-a]pyridine-7-carbonitrile] to `C[C@@H]1CN(c2ccc(C#N)n3nccc23)C[C@H](CN2CCC(N)CC2)O1` [Example 17, 4-[(2S,6R)-2-[(4-amino-1-piperidyl)methyl]-6-methyl-morpholin-4-yl]pyrazolo[1,5-a]pyridine-7-carbonitrile], the IC50 falls from 0.93 µM to 0.058 µM (16-fold). The second is the more potent here.

Compared with `C[C@@H]1CN(c2ccc(C#N)n3ncc(F)c23)C[C@H](CN2CCCC3(CCNCC3)C2)O1` [Example 67, 4-[(2S,6R)-2-(2,9-diazaspiro[5.5]undecan-2-ylmethyl)-6-methyl-morpholin-4-yl]-3-fluoro-pyrazolo[1,5-a]pyridine-7-carbonitrile], `C[C@@H]1CN(c2ccc(C#N)n3nccc23)C[C@H](CN2CCCC3(CCNCC3)C2)O1` [Example 32, 4-[(2S,6R)-2-(2,9-diazaspiro[5.5]undecan-2-ylmethyl)-6-methyl-morpholin-4-yl]pyrazolo[1,5-a]pyridine-7-carbonitrile] is 2.4-fold higher in IC50: 0.038 µM for the first, 0.091 µM for the second.

Going from `C[C@@H]1CN(c2ccc(C#N)n3nccc23)C[C@H](CN2CCCC3CNCC32)O1` (stereo partly drawn) [Example 61, 4-[(2S,6R)-2-(2,3,4,4a,5,6,7,7a-octahydropyrrolo[3,4-b]pyridin-1-ylmethyl)-6-methyl-morpholin-4-yl]pyrazolo[1,5-a]pyridine-7-carbonitrile] to `C[C@@H]1CN(c2ccc(C#N)n3nccc23)C[C@H](CN2CC3CNCCC32)O1` (stereo partly drawn) [Example 52, 4-[(2S,6R)-2-(3,7-diazabicyclo[4.2.0]octan-7-ylmethyl)-6-methyl-morpholin-4-yl]pyrazolo[1,5-a]pyridine-7-carbonitrile], the IC50 falls from 0.3 µM to 0.053 µM (5.7-fold).

Compared with `C[C@@H]1CN(c2ccc(C#N)n3nccc23)C[C@H](CN2CCC3(CCCNC3)C2)O1` (stereo partly drawn) [Example 25, 4-[(2S,6R)-2-(2,9-diazaspiro[4.5]decan-2-ylmethyl)-6-methyl-morpholin-4-yl]pyrazolo[1,5-a]pyridine-7-carbonitrile], `C[C@@H]1CN(c2ccc(C#N)n3nccc23)C[C@H](CN2CCN(C)CC2)O1` [Example 15, 4-[(2R,6S)-2-methyl-6-[(4-methylpiperazin-1-yl)methyl]morpholin-4-yl]pyrazolo[1,5-a]pyridine-7-carbonitrile] is 2-fold higher in IC50: 0.088 µM for the first, 0.18 µM for the second.

Going from `C[C@@H]1CN(c2ccc(C#N)n3nccc23)C[C@H](CN2C3CCCC2CC(N)C3)O1` (stereo partly drawn) [Example 65, Endo-4-[(2S,6R)-2-[(3-amino-9-azabicyclo[3.3.1]nonan-9-yl)methyl]-6-methyl-morpholin-4-yl]pyrazolo[1,5-a]pyridine-7-carbonitrile] to `C[C@@H]1CN(c2ccc(C#N)n3nccc23)C[C@H](CN2CCC(CN)CC2)O1` [Example 12, 4-[(2S,6R)-2-[[4-(aminomethyl)-1-piperidyl]methyl]-6-methyl-morpholin-4-yl]pyrazolo[1,5-a]pyridine-7-carbonitrile], the IC50 rises from 0.064 µM to 0.28 µM (4.4-fold). The first is the more potent here.

`C[C@@H]1CN(c2ccc(C#N)n3nccc23)C[C@H](CN2CCC(N3CCN(C)CC3)CC2)O1` [Example 1, 4-[(2R,6S)-2-methyl-6-[[4-(4-methylpiperazin-1-yl)-1-piperidyl]methyl]morpholin-4-yl]pyrazolo[1,5-a]pyridine-7-carbonitrile] was tested, and the IC50 was 0.028 µM.
